Measured values from PubChem BioAssay (NCI).
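Interpolation was linear, between the two tested concentrations surrounding the appropriate level; five concentrations were tested over 48 hours in 96-well plates. Definition used: TGI = concentration required for complete inhibition of growth.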

Assays:
Assay in all cases: growth of human tumour cells (NCI), 48 h
[1] = test system: OVCAR-8 ovarian
[2] = test system: NCI-H226 lung
[3] = test system: K-562 leukemia
[4] = test system: TK-10 renal
[5] = test system: HCT-116 colon
[6] = test system: NCI-H522 lung
[7] = test system: A549 NSCLC
[8] = test system: OVCAR-5 ovarian
[9] = test system: EKVX NSCLC
[10] = test system: SK-OV-3 ovarian
[11] = test system: LOX IMVI melanoma
[12] = test system: SNB-19 CNS
[13] = test system: SNB-75 CNS
[14] = test system: NCI-H460 lung
[15] = test system: UACC-62 melanoma
[16] = test system: ACHN renal
[17] = test system: RPMI-8226 leukemia
[18] = test system: XF 498 CNS
[19] = test system: SK-MEL-28 melanoma
[20] = test system: SK-MEL-5 melanoma
[21] = test system: RXF 393 renal
[22] = test system: SK-MEL-2 melanoma
[23] = test system: NCI-H23 lung
[24] = test system: SNB-78 CNS
[25] = test system: HOP-92 NSCLC
[26] = test system: SF-295 CNS
[27] = test system: HOP-62 NSCLC
[28] = test system: DMS 273 small cell lung
[29] = test system: A498 renal
[30] = test system: CAKI-1 renal
[31] = test system: KM20L2 colon
[32] = test system: LXFL 529 NSCLC
[33] = test system: SN12C renal
[34] = test system: IGROV1 ovarian
[35] = test system: MALME-3M melanoma
[36] = test system: DMS 114 small cell lung
[37] = test system: COLO 205 colon
[38] = test system: 786-0 renal
[39] = test system: UO-31 renal
[40] = test system: M19-MEL melanoma
[41] = test system: M14 melanoma
[42] = test system: DLD-1 colon
[43] = test system: SF-539 CNS
[44] = test system: MOLT-4 leukemia
[45] = test system: HCT-15 colon
[46] = test system: SF-268 CNS
[47] = test system: SW-620 colon
[48] = test system: OVCAR-4 ovarian
[49] = test system: HT29 colon
[50] = test system: HL-60(TB) leukemia
[51] = test system: UACC-257 melanoma
[52] = test system: OVCAR-3 ovarian
[53] = test system: MDA-MB-231 breast
[54] = test system: BT-549 breast
[55] = test system: HS 578T breast
[56] = test system: MDA-N
[57] = test system: PC-3 prostate
[58] = test system: KM12 colon
[59] = test system: MCF7 breast
[60] = test system: SR leukemia
[61] = test system: U251 CNS
[62] = test system: NCI/ADR-RES ovarian
[63] = test system: CCRF-CEM leukemia
[64] = test system: T-47D breast
[65] = test system: HCC-2998 colon
[66] = test system: DU-145 prostate
[67] = test system: MDA-MB-435

Measured: TGI

O=C(CC1(O)C(=O)Nc2ccccc21)c1ccco1 (stereo unspecified)
not listed: [53] | [54] | [55] | [56] | [57] | [58] | [59] | [60] | [61] | [62] | [63] | [64] | [65] | [66] | [67]
> 100 µM: all other assays above

CC(C)(C)c1cc2c(O)c(c1)Cc1cc(C(C#N)(Cc3ccc4ccccc4c3)Cc3ccc4ccccc4c3)cc(c1O)Cc1cc(C(C)(C)C)cc(c1O)Cc1cc(C(C#N)(Cc3ccc4ccccc4c3)Cc3ccc4ccccc4c3)cc(c1O)C2
not listed: [18] | [24] | [28] | [31] | [32] | [36] | [40] | [42]
> 100 µM: all other assays above
